From patent US10336702B2, “Pharmaceutically active compounds” (BERGENBIO ASA, priority 2015, dated 2019) come the findings set out here.

For one experiment, the target named is T1, Akt1 (Homo sapiens, UniProt P31749).
T1 construct: unspecified tag, removed (detagged) (cleaved yes); purchased SignalChem and Proteros (Akt1); Merck Millipore (PDK1) 14-452 (PDK1); none given for Akt1
Kind of experiment: Akt activation assay (PDK1-mediated activation, LANCE Ultra crosstide TR-FRET), Akt1. The format is biochemical. The note with it: read-out: Biological Assay 1 IC50 (nM) Akt1. A digest of the protocol: (§1)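 This TR-FRET readout (Eu-anti-phospho-crosstide antibody, 665/615 nm) measured PDK1-driven activation of Akt. Compound was first preincubated with each Akt isoform: Akt1 5 nM; Akt2 15 nM SignalChem or 5 nM Proteros; Akt3 3 nM SignalChem or 5 nM Proteros. Reactions then ran 30 min with 5 nM PDK1, lipid vesicles containing 0.55 µM PtdIns(3,4,5)P3, 100 µM ATP and 100 nM crosstide at pH 7.5, and IC50 came from a 4-parameter equation.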

The next experiment addresses T2, Akt2 (Homo sapiens, UniProt P31751).
T2 construct: unspecified tag, removed (detagged) (cleaved yes); purchased SignalChem and Proteros (Akt2); Merck Millipore (PDK1) 14-452 (PDK1); none given for Akt2
Kind of experiment: Akt activation assay (PDK1-mediated activation, LANCE Ultra crosstide TR-FRET), Akt2. The format is biochemical. The note with it: read-out: Biological Assay 1 IC50 (nM) Akt2. The essentials: as §1

Another experiment addresses T3, Akt3 (Homo sapiens, UniProt Q9Y243).
T3 construct: unspecified tag, removed (detagged) (cleaved yes); purchased SignalChem and Proteros (Akt3); Merck Millipore (PDK1) 14-452 (PDK1); none given for Akt3
Kind of experiment: Akt activation assay (PDK1-mediated activation, LANCE Ultra crosstide TR-FRET), Akt3. The note with it: read-out: Biological Assay 1 IC50 (nM) Akt3. Format: biochemical. The essentials: as §1

The next experiment concerns the target T4, p-Akt1 in LNCaP cells (Homo sapiens, UniProt P31749).
T4 construct: SureFire assays to detect cellular p-Akt1, p-Akt2 and p-Akt3 levels in WM115 cells (Akt2/3) and LNCaP cells (Akt1); endogenous in cells; host or cells: LNCaP (ECACC 89110211)
Kind of experiment: Phospho-Akt cellular SureFire assay, p-Akt1 in LNCaP cells. The format is cell-based. The note with it: read-out: Biological Assay 2 IC50 (nM) Akt1 LNCaP. A digest of the protocol:
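Phospho-Thr308 Akt1 detected by AlphaScreen SureFire proximity beads in LNCaP lysates after 15 min compound treatment at 37 °C in 0.1% FBS medium, unstimulated, 0.3% DMSO. Cells plated at 5×10^4/well overnight; IC50 from a 4-parameter equation.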

The target of a further experiment is T5, p-Akt2 in WM115 cells (Homo sapiens, UniProt P31751).
T5 construct: SureFire assays to detect cellular p-Akt1, p-Akt2 and p-Akt3 levels in WM115 cells (Akt2/3) and LNCaP cells (Akt1); endogenous in cells; host or cells: WM115 (ECACC 91061232), insulin-stimulated
Kind of experiment: Phospho-Akt cellular SureFire assay, p-Akt2 in WM115 cells. The format is cell-based. The note with it: insulin stimulated, read-out: Biological Assay 2 IC50 (nM) Akt2 WM115. The essentials:
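Readout is a bead-proximity SureFire assay pairing a pThr308 Akt antibody with a total Akt2 antibody, lysate and beads incubated 2 h plus 2 h at room temperature in the dark. Before lysis, serum-starved WM115 cells received 100 nM insulin (10 min), then test compound (15 min, 0.3% DMSO); IC50 by 4-parameter equation.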

The next experiment has as its target T6, p-Akt3 in WM115 cells (Homo sapiens, UniProt Q9Y243).
T6 construct: SureFire assays to detect cellular p-Akt1, p-Akt2 and p-Akt3 levels in WM115 cells (Akt2/3) and LNCaP cells (Akt1); endogenous in cells; host or cells: WM115 (ECACC 91061232), insulin-stimulated
Kind of experiment: Phospho-Akt cellular SureFire assay, p-Akt3 in WM115 cells. The format is cell-based. The note with it: insulin stimulated, read-out: Biological Assay 2 IC50 (nM) Akt3 WM115. A digest of the protocol:
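pThr308-Akt3 in lysates was quantified by bead-proximity SureFire detection, pairing a phospho-specific antibody with a total Akt3 antibody. Before lysis, WM115 cells in 0.1% FBS medium were treated for 15 min at 37 °C with compound (final DMSO 0.3%), following a 10 min stimulation with 100 nM insulin. IC50 was obtained by 4-parameter fitting.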

T3 sequence (Q9Y243 whole entry): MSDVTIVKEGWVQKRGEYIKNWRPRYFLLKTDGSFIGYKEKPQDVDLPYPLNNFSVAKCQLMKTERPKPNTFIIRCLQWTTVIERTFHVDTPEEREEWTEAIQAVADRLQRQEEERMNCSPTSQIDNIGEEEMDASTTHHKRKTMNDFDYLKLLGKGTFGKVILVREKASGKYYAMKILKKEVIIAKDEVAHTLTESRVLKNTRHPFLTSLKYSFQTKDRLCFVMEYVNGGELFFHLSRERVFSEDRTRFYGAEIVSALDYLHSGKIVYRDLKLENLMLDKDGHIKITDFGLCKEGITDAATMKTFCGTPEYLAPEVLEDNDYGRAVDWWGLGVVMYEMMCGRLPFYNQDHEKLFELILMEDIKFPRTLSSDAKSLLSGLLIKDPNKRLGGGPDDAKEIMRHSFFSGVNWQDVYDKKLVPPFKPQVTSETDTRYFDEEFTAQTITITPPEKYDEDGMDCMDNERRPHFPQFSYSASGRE
T6 sequence (Q9Y243 whole entry): as above
T4 sequence (P31749 whole entry): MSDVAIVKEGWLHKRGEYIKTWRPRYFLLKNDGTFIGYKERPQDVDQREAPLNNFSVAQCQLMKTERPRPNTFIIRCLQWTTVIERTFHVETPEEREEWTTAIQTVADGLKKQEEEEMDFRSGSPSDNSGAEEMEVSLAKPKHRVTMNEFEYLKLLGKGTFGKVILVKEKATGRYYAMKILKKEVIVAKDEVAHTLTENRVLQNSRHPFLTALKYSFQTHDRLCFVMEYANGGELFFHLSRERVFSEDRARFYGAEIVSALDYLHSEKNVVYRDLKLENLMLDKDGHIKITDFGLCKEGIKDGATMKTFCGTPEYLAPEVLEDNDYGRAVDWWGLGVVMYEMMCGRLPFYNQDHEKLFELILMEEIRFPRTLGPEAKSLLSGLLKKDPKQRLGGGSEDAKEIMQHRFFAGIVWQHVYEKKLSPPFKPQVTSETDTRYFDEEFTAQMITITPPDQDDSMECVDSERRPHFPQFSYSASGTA
T1 sequence (P31749 whole entry): as above
T2 sequence (P31751 whole entry): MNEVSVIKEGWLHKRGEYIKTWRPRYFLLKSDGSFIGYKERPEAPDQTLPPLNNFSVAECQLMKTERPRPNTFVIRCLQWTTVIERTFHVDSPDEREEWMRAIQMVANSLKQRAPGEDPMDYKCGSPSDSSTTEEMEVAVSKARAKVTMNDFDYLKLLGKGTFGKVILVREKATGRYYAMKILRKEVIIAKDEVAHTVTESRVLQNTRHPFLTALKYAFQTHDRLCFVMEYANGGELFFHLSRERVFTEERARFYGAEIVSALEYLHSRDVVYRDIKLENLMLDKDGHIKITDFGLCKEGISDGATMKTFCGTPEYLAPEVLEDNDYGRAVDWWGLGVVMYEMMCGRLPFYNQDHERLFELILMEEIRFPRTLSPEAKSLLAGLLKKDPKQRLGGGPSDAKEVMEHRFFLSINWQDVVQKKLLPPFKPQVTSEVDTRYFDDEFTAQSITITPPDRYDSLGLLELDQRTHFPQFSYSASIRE
T5 sequence (P31751 whole entry): as above

Take `CN(C(=O)C1CC1)[C@H]1CC[C@H](CC(=O)Nc2cc(-c3ccccc3)c(-c3ccc([C@]4(N)C[C@](C)(O)C4)cc3)cn2)CC1` [Example A75, N-(trans-4-(2-((5-(4-(trans-1-amino-3-hydroxy-3-methylcyclobutyl)phenyl)-4-phenylpyridin-2-yl)amino)-2-oxoethyl)cyclohexyl)-N-methylcyclopropanecarboxamide]: the IC50 on Akt1 stood at 12000 nM; at Akt2 it was 140 nM; at Akt3, 6 nM; at p-Akt1 in LNCaP cells, 1400 nM; on p-Akt2 in WM115 cells, 320 nM; at p-Akt3 in WM115 cells, 13 nM.
Turning to `COC(=O)N(C)[C@H]1CC[C@H](CC(=O)Nc2cc(-c3ccsc3)c(-c3ccc(C4(N)CC4)c(F)c3)nn2)CC1` [Example A100, Methyl (trans-4-(2-((6-(4-(1-aminocyclopropyl)-3-fluorophenyl)-5-(thiophen-3-yl)pyridazin-3-yl)amino)-2-oxoethyl)cyclohexyl)(methyl)carbamate], the IC50 is more than 30000 nM at Akt1; more than 30000 nM at Akt2; 520 nM on Akt3; more than 30000 nM at p-Akt1 in LNCaP cells; more than 30000 nM on p-Akt2 in WM115 cells; 1400 nM on p-Akt3 in WM115 cells.
Consider `COC(=O)N[C@H]1CC[C@H](CC(=O)Nc2cnc(-c3ccc(C4(N)CC(F)(F)C4)cc3)c(-c3ccccc3)c2)CC1` [Example A4, Methyl (trans-4-(2-((6-(4-(1-amino-3,3-difluorocyclobutyl)phenyl)-5-phenylpyridin-3-yl)amino)-2-oxoethyl)cyclohexyl)carbamate], for which the IC50 on Akt1 was 11000 nM; at Akt2, 2400 nM; at Akt3, 630 nM; at p-Akt1 in LNCaP cells, more than 30000 nM; at p-Akt2 in WM115 cells, 7600 nM; at p-Akt3 in WM115 cells it was 440 nM.
In the case of `CC(=O)N(C(C)C)[C@H]1CC[C@H](CC(=O)Nc2cnc(-c3ccc([C@]4(N)C[C@](C)(O)C4)cc3)c(-c3ccccc3)c2)CC1` [Example 120, N-(6-(4-(trans-1-amino-3-hydroxy-3-methylcyclobutyl)phenyl)-5-phenylpyridin-3-yl)-2-(trans-4-(N-isopropylacetamido)cyclohexyl)acetamide], the IC50 at Akt1 amounted to 8600 nM; on Akt2 it was 65 nM; at Akt3, 7 nM; on p-Akt1 in LNCaP cells, 1300 nM; at p-Akt2 in WM115 cells, 350 nM; on p-Akt3 in WM115 cells it was 15 nM.
`NC1(c2ccc(-c3cnc(NC(=O)C[C@H]4CC[C@H](N5CCOC5=O)CC4)cc3-c3ccsc3)cc2)CCC1` [Example 70, N-(5-(4-(1-aminocyclobutyl)phenyl)-4-(thiophen-3-yl)pyridin-2-yl)-2-(trans-4-(2-oxooxazolidin-3-yl)cyclohexyl)acetamide]: the IC50 at Akt1 was more than 30000 nM; at Akt2, 830 nM; at Akt3, 42 nM; at p-Akt1 in LNCaP cells, more than 30000 nM; at p-Akt2 in WM115 cells it was 910 nM; at p-Akt3 in WM115 cells, 39 nM.
With `CN(C(=O)C1CCC1)[C@H]1CC[C@H](CC(=O)Nc2cc(-c3ccccc3)c(-c3ccc(C4(N)CC4)cc3)nn2)CC1` [Example A93, N-(trans-4-(2-((6-(4-(1-aminocyclopropyl)phenyl)-5-phenylpyridazin-3-yl)amino)-2-oxoethyl)cyclohexyl)-N-methylcyclobutanecarboxamide], the IC50 on Akt1 is more than 19000 nM; on Akt2, 1400 nM; on Akt3 it was 37 nM; on p-Akt1 in LNCaP cells, more than 30000 nM; on p-Akt2 in WM115 cells, 2600 nM; at p-Akt3 in WM115 cells, 200 nM.
Turning to `CCOC(=O)N(C)[C@H]1CC[C@H](CC(=O)Nc2cc(-c3ccccc3)c(-c3ccc(C4(N)CC4)cc3)nn2)CC1` [Example A94, Ethyl (trans-4-(2-((6-(4-(1-aminocyclopropyl)phenyl)-5-phenylpyridazin-3-yl)amino)-2-oxoethyl)cyclohexyl)(methyl)carbamate], the IC50 on Akt1 is more than 23000 nM; at Akt2, 2200 nM; on Akt3 it was 57 nM; on p-Akt1 in LNCaP cells, more than 30000 nM; at p-Akt2 in WM115 cells it was 6000 nM; at p-Akt3 in WM115 cells, 370 nM.
For the molecule `COC(=O)N(C)[C@H]1CC[C@H](CC(=O)Nc2cc(-c3ccccc3)c(-c3ccc(C4(N)CCC4)cc3)nn2)CC1` [Example A55, Methyl (trans-4-(2-((6-(4-(1-aminocyclobutyl)phenyl)-5-phenylpyridazin-3-yl)amino)-2-oxoethyl)cyclohexyl)(methyl)carbamate], the IC50 on Akt1 was more than 16000 nM; at Akt2, 380 nM; at Akt3, 16 nM; at p-Akt1 in LNCaP cells it was more than 30000 nM; on p-Akt2 in WM115 cells, 5000 nM; at p-Akt3 in WM115 cells, 310 nM.
With `CC(C)(N)c1ccc(-c2ncc(NC(=O)C[C@H]3CC[C@H](NC(=O)CC4CC4)CC3)cc2-c2ccccc2)cc1` [Example 29, N-(6-(4-(2-aminopropan-2-yl)phenyl)-5-phenylpyridin-3-yl)-2-(trans-4-(2-cyclopropylacetamido)cyclohexyl)acetamide], the IC50 was more than 33000 nM at Akt1; 2200 nM at Akt2; 53 nM on Akt3; more than 13000 nM at p-Akt1 in LNCaP cells; 8400 nM at p-Akt2 in WM115 cells; 170 nM on p-Akt3 in WM115 cells.
With `CCC(=O)N(C)[C@H]1CC[C@H](CC(=O)Nc2cc(-c3ccsc3)c(-c3ccc([C@]4(N)C[C@H](F)C4)cc3)nn2)CC1` [Example 125], the IC50 at Akt1 was more than 30000 nM; at Akt2, 1500 nM; on Akt3 it was 26 nM; on p-Akt1 in LNCaP cells, more than 30000 nM; at p-Akt2 in WM115 cells, 3000 nM; at p-Akt3 in WM115 cells, 22 nM.
In the case of `CC(=O)N(C(C)C)[C@H]1CC[C@H](CC(=O)Nc2cc(-c3ccccc3)c(-c3ccc([C@]4(N)C[C@](C)(O)C4)cc3)nn2)CC1` [Example 100, N-(6-(4-(trans-1-amino-3-hydroxy-3-methylcyclobutyl)phenyl)-5-phenylpyridazin-3-yl)-2-(trans-4-(N-isopropylacetamido)cyclohexyl)acetamide], the IC50 at Akt1 is 2400 nM; at Akt2, 170 nM; at Akt3, 8 nM; at p-Akt1 in LNCaP cells it was 790 nM; on p-Akt2 in WM115 cells, 1000 nM; at p-Akt3 in WM115 cells it was 26 nM.
As for `COC(=O)N(C)[C@H]1CC[C@H](CC(=O)Nc2cc(-c3ccccc3)c(-c3ccc(C(C)(C)N)cc3)nn2)CC1` [Example 56, Methyl (trans-4-(2-((6-(4-(2-aminopropan-2-yl)phenyl)-5-phenylpyridazin-3-yl)amino)-2-oxoethyl)cyclohexyl)(methyl)carbamate], the IC50 was more than 30000 nM at Akt1; 10000 nM at Akt2; 100 nM on Akt3; more than 30000 nM on p-Akt1 in LNCaP cells; more than 30000 nM on p-Akt2 in WM115 cells; 330 nM at p-Akt3 in WM115 cells.
As for `CC(C)(N)c1ccc(-c2ncc(NC(=O)C[C@H]3CC[C@H](C(=O)N4CCOCC4)CC3)cc2-c2ccccc2)cc1` [Example A46, N-(6-(4-(2-aminopropan-2-yl)phenyl)-5-phenylpyridin-3-yl)-2-(trans-4-(morpholine-4-carbonyl)cyclohexyl)acetamide], the IC50 at Akt1 is more than 30000 nM; on Akt2, 2400 nM; at Akt3 it was 1000 nM; at p-Akt1 in LNCaP cells, more than 30000 nM; on p-Akt2 in WM115 cells it was 6300 nM; on p-Akt3 in WM115 cells it was 190 nM.
As to `CC(=O)N[C@H]1CC[C@H](CC(=O)Nc2cnc(-c3ccc(C(C)(C)N)cc3)c(-c3ccccc3)c2)CC1` [Example A19, 2-(trans-4-acetamidocyclohexyl)-N-(6-(4-(2-aminopropan-2-yl)phenyl)-5-phenylpyridin-3-yl)acetamide], the IC50 on Akt1 was more than 45000 nM; at Akt2 it was more than 50000 nM; at Akt3 it was 110 nM; at p-Akt1 in LNCaP cells, more than 30000 nM; on p-Akt2 in WM115 cells, more than 30000 nM; on p-Akt3 in WM115 cells it was 1800 nM.
